Data taken from ChEMBL document CHEMBL1201862, “PubChem BioAssay data set” (2004).
Calls of active or inactive are those of the source.

Key:
P388/ADR = experiment: cells; type: functional; conditions: Mus musculus
SN12K1 = experiment: cells; type: functional; conditions: Homo sapiens
Streptococcus = experiment: GAS UMAA2166 growth inhibition – luminescence, BacTiterGlo, counter-screen for streptokinase expression inhibitor project, dose response (AID 1915); type: functional, organism-based;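 note: potency for reduction of bacterial viability or growth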
Streptokinase A = molecular target: T1, Streptokinase A (Streptococcus pyogenes serotype M1, UniProt P10520); experiment: viability-normalized secreted streptokinase activity reduction – plasminogen activation absorbance, OD405, dose response (AID 1914); type: functional, Streptococcus pyogenes M1 GAS;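 note: secreted streptokinase activity via plasminogen activation per viability signal from cell pellet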
T1 sequence (P10520 whole entry): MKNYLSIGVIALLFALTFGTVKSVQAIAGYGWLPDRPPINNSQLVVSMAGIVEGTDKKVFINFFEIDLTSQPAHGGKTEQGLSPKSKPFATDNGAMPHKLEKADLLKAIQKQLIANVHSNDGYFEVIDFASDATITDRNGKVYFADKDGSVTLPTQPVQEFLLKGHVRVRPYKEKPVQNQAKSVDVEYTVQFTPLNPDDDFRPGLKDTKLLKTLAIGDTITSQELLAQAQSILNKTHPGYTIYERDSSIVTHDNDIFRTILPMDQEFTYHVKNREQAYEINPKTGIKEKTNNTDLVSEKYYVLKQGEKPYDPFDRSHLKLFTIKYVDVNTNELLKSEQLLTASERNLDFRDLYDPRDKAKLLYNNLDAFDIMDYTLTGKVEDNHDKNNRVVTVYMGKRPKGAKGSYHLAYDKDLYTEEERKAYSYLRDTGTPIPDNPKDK

[1] = tested on: Streptococcus sp. 'group A'; experiment: Streptococcus pyogenes SK(-)GAS viability under kanamycin – luminescence, BacTiterGlo, confirmation, counter-screen for streptokinase expression inhibitor project, dose response (AID 1900); type: functional, organism-based
[2] = molecular target: T2, Calpain-2 catalytic subunit (Sus scrofa, UniProt P43367); experiment: m-calpain protease blockers, concentration series – biochemical, fluorogenic peptide substrate, dose response (AID 1420); type: functional
T2 sequence (P43367 whole entry): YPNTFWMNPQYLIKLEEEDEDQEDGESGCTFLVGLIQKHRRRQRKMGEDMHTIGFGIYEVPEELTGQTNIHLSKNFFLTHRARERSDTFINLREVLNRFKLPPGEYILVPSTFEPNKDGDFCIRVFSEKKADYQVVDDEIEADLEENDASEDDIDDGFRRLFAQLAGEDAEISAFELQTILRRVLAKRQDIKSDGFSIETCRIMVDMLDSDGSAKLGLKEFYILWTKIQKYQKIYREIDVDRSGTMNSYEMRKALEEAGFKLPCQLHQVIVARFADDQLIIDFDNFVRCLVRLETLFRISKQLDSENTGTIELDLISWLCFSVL

[3] = microbe, parasite or virus in culture; type: functional; conditions: Mycobacterium tuberculosis
[4] = THP-1 cell cytotoxicity, dose response, cytotoxicity control for non-replicating M. tuberculosis project (AID 489025); type: functional
[5] = molecular target: T3, Ubiquitin-conjugating enzyme E2 N (Homo sapiens, UniProt P61088); type: functional;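 note: Dose-response confirmation in a TR-FRET assay detecting UBC13-driven polyubiquitin chain formation, inhibition measured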
T3 sequence (P61088 whole entry): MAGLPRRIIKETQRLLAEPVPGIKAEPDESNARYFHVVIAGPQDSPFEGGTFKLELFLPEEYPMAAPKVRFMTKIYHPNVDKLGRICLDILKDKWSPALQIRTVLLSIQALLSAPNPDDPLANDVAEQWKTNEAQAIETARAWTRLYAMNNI

cells = type: functional
[6] = Luminescence Cell-Based Dose Retest to Confirm Inhibitors of Cancer Stem Cells. [Related pubchem assays (depositor defined):AID2717, AID2721]; type: functional; conditions: Homo sapiens
[7] = NIH3T3 cell viability loss – ATP luminescence, mouse fibroblasts, counter-screen, dose response (AID 2010); type: functional, cell-based;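 note: cells exposed to compound for about 90 hours before reading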
[8] = Trypanosoma cruzi growth suppression in host cells – NIH3T3 host cells, beta-gal luminescence, confirmation (AID 2044); type: functional, cell-based;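 note: intracellular parasites grown in NIH/3T3 mouse fibroblasts as host cells; luminescent beta-galactosidase reporter signal from transgenic T. cruzi replicating inside host cells; inhibitors lower the luminescence signal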
[9] = molecular target: T4, Microphthalmia-associated transcription factor (Homo sapiens, UniProt O75030); experiment: reducers of TRPM1 reporter luminescence, concentration series – cell-based, SK-MEL-5, cherry-picked, set 3, MITF inhibitor project, dose response (AID 493073); type: functional;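 note: SK-MEL-5 melanoma cells with luciferase driven by the MITF target TRPM1 promoter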
T4 sequence (O75030 whole entry): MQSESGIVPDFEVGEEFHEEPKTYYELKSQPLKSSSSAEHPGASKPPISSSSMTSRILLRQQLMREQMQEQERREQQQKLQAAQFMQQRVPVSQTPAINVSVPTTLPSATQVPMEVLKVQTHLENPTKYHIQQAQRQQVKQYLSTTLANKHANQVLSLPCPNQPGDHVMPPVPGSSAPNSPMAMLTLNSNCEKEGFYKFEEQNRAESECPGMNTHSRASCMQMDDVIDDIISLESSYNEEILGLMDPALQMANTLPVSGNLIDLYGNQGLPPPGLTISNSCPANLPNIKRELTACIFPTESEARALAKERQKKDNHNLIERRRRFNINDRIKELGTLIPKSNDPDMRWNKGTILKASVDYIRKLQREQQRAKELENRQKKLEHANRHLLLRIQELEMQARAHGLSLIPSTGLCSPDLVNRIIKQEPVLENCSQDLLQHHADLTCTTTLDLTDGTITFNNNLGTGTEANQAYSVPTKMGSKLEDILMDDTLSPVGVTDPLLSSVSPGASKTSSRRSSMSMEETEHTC

Cytochrome P450 3A4 = Cytochrome P450 3A4 (Homo sapiens, UniProt P08684);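 note: CYP3A4 tested as one member of a cytochrome P450 panel screen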
[10] = molecular target: T5, Mannose-6-phosphate isomerase (Homo sapiens, UniProt P34949); experiment: MPI inhibition at elevated mannose 6-phosphate – biochemical, fluorescence intensity, high mannose 6-phosphate, primary screen (AID 1220)
T5 sequence (P34949 whole entry): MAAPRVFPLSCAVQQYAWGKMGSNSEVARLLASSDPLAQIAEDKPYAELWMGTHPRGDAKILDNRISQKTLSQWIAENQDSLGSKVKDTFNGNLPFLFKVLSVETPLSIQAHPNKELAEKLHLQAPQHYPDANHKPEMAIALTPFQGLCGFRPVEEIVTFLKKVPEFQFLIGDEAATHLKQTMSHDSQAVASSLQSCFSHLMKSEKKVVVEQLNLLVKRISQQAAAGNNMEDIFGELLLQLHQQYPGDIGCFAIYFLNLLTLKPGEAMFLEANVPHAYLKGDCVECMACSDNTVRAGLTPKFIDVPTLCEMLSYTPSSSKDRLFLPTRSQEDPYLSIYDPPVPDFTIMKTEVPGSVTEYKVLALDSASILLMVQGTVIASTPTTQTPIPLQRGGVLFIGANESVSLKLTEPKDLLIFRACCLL

Protein RecA = molecular target: T6, Protein RecA (Mycobacterium tuberculosis, UniProt P9WHJ3); experiment: Fluorescence Cell-Free Homogeneous Dose Retest to Identify Inhibitors of RecA-Intein Splicing Activity. [Related pubchem assays (depositor defined):AID2097, AID2223, AID489010, AID492950]; type: functional
T6 sequence (P9WHJ3 whole entry): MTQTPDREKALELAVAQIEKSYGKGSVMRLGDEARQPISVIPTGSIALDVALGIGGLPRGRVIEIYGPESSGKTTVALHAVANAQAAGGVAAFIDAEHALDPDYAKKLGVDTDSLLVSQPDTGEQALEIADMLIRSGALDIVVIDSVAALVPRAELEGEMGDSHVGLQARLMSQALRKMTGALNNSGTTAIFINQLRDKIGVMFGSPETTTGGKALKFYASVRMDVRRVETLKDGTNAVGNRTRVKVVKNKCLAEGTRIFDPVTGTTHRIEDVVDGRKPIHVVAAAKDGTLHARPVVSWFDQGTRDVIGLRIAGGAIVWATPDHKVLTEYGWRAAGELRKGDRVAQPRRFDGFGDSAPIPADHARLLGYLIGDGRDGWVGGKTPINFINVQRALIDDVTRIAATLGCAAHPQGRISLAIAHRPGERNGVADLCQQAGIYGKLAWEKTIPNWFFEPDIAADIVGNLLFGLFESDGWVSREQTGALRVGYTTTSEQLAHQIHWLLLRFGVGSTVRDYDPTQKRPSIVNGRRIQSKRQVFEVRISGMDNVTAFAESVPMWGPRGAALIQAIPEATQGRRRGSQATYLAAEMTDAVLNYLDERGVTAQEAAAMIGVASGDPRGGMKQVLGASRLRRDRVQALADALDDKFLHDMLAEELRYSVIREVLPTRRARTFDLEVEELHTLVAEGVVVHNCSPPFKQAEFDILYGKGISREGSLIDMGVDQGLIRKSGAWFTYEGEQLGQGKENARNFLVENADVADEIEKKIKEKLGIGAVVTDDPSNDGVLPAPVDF

[11] = reduction of Shn3 3'UTR-driven luciferase in osteoblasts – cell-based, Clone20 osteoblasts, firefly luciferase, cherry-picked, dose response (AID 624132); type: functional;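 note: firefly luciferase luminescence from reporter carrying the Shn3 3'UTR in osteoblasts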
[12] = non-specific 3'UTR reporter inhibition in Clone20-Shn3RL – cell-based, Renilla luciferase, cherry-picked, counter-screen for Shn3 inhibitor project, dose response (AID 624133); type: functional
[13] = loss of viability in HepG2 cells – cell-based, CellTiter-Glo, cherry-picked, cytotoxicity control for Shn3 inhibitor project, dose response (AID 624134); type: functional
INS1 = experiment: INS-1E survival protection against cytokine death – cell-based, luminescence, retest, dose response (AID 449756); type: functional; conditions: Rattus norvegicus;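 note: cell death triggered by IL-1 beta plus TNF-alpha plus IFN-gamma mixture; protective hits raise ATP signal compared with cytokine alone wells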
[14] = blockers of bursicon-stimulated LGR2 cAMP reporter – cell-based, HEK293, CRE-luciferase reporter, cherry pick, set 2, dose response (AID 743343); type: functional;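 note: transfected cells were stimulated with diluted bursicon conditioned medium after compound addition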
[15] = blockade of melanocortin 4 receptor signaling – cell-based, plate reader, cherry pick, counter-screen for LGR2 antagonist project, dose response (AID 743444); type: functional;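 note: transfected HEK 293 cells stimulated with alpha-MSH peptide; potency of inhibitors of the alpha-MSH evoked signal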
[16] = A549 cell cytotoxicity, dose response, cytotoxicity control, plate reader, cherry-pick, antagonist series (AID 743412); type: functional, cell-based
[17] = molecular target: Heat shock protein HSP 90-alpha (Homo sapiens, UniProt P07900); type: functional, organism-based

Sequence of Cytochrome P450 3A4 (P08684 whole entry): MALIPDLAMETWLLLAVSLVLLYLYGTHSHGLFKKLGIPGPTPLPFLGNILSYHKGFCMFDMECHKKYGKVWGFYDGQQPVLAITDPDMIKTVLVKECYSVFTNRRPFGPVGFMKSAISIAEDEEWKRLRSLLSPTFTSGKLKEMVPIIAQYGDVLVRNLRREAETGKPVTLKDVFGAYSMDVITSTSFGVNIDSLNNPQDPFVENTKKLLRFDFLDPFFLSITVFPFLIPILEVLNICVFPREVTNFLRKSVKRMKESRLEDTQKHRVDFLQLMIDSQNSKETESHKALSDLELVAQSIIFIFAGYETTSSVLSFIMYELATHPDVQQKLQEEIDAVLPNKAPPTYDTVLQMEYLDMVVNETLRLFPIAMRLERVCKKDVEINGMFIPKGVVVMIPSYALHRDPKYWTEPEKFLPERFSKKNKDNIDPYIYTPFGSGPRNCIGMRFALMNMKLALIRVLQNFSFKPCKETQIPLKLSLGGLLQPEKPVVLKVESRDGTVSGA

O=C(O)/C=C/c1c[nH]cn1
GI50 (P388/ADR): > 500 µM (inactive) | GI50 (SN12K1): > 500 µM (inactive)

Oc1c(Cl)cc(Cl)cc1C(C#Cc1ccccc1)N1CCOCC1 (centres undefined)
EC50 (Streptococcus): 48.9 µM (active) | EC50 (Streptokinase A): 26.8 µM (active) | EC50 [1]: 16.6 µM (active) | IC50 [2]: 12.8 µM (not active)

O=C(Nc1cccc(-c2ccc(N3CCCCC3)nn2)c1)c1ccc(Br)o1
CC50 [3]: > 40 µM (active)

NC1=NC[C@H](Cc2ccc(O)cc2)N1CCc1cccc2ccccc12
CC50 [4]: > 40 µM (active) | IC50 [5]: > 20 µM (inactive) | IC50 (cells): 9.5 µM (active)

O=C(NC(=S)NCC1CCCO1)c1ccc(Br)o1 (centres undefined)
IC50 [2]: 1.43 µM (not active)

O=C(CCc1ccc(Oc2cc([N+](=O)[O-])cc([N+](=O)[O-])c2)cc1)N1CCCCCC1
AC50 [6]: 4.73 µM (active) | EC50 [7]: > 30 µM (not active) | CC50 [3]: > 40 µM (active) | EC50 [8]: 0.187 µM (active)

O=C(CSc1nnnn1-c1ccc(O)cc1)Nc1cccc(S(=O)(=O)N2CCCC2)c1
AC50 [9]: 50.2 µM (active)

CC1CCCCN1Cc1cnc(Cl)s1 (centres undefined)
IC50 [2]: > 50 µM (not active)

c1ccc(-c2c3c4ccccc4nc-3[nH]c3ccccc23)cc1
AC50 [6]: 2.03 µM (active) | CC50 [3]: > 40 µM (active)

CN1c2ccccc2C(C)(C)C12C=Nc1c(cc(N3CCOCC3)c3ccccc13)O2 (centres undefined)
AC50 (Cytochrome P450 3A4): 4.47 µM (inconclusive) | IC50 [10]: > 50 µM (not active) | EC50 (Protein RecA): 50.5 µM (inconclusive)

c1ccc(C2=Nn3c(nnc3-c3ccco3)SC2)cc1
IC50 [10]: > 50 µM (not active)

CC(C)(C)C(=O)/C(=C/c1ccc(Cl)cc1)n1cncn1
AC50 [11]: 3.75 µM (active) | AC50 [12]: 10.8 µM (active) | AC50 [13]: 18 µM (active)

COc1ccc(C(CC(=O)c2ccccc2)S(=O)(=O)c2ccc(C)cc2)cc1 (centres undefined)
CC50 [3]: > 40 µM (active)

Cc1ccc(NC(=O)C2CCN(S(=O)(=O)c3ccc(N4CCCC4=O)cc3)CC2)cc1Cl
AC50 [11]: 0.549 µM (active) | AC50 (INS1): 1.93 µM (active) | AC50 [12]: 0.808 µM (active) | AC50 [13]: > 70 µM (inactive)

CCOC(=O)c1c(N)sc(N)c1C(=O)OCC
IC50 [10]: > 50 µM (not active)

Cc1ccc(OCCCCn2ccnc2)c(Cl)c1
CC50 [4]: > 40 µM (active) | IC50 (cells): 39.1 µM (active) | EC50 [7]: > 60 µM (not active) | EC50 [8]: 1.37 µM (active)

O=c1cc(-c2ccccc2)oc2cc(OCc3ccccc3)cc(O)c12
IC50 [2]: > 50 µM (not active)

CCCCNC(=S)N/N=C1\CCCCc2ccccc21
IC50 [2]: 11.2 µM (not active)

Cc1ccc(S(=O)(=O)N(C)C[C@H]2Oc3c(cccc3N(C)C)C(=O)N([C@@H](C)CO)C[C@@H]2C)cc1
AC50 [14]: 0.726 µM (active) | AC50 [15]: 0.341 µM (active) | AC50 [16]: > 52 µM (inactive)

CCCC(=O)NC(c1ccc(OC)c(OC)c1)c1cc(Cl)c2cccnc2c1O (centres undefined)
AC50 [17]: 12.4 µM (active) | AC50 [9]: 9.06 µM (active) | AC50 (INS1): 1.69 µM (active) | EC50 [7]: < 6 µM (inconclusive) | EC50 [8]: 1.2 µM (active)

C[C@H](CO)N1C[C@H](C)[C@H](CN(C)C(=O)CN2CCOCC2)Oc2ncc(C#CCN(C)C)cc2C1=O
AC50 [16]: > 52 µM (inactive)

N#C[C@@H]1[C@H](c2ccc(C#CC3CCCCC3)cc2)[C@@H](CO)N1C(=O)c1cccc(F)c1
AC50 [15]: 36.1 µM (active) | AC50 [16]: 35.8 µM (active)
